This note sets out measurements from patent US7132420B2, “Aspartic protease inhibitors” (The United States of America as represented by the …, priority 1999, dated 2006).

One series addresses HIV-1 protease (Human immunodeficiency virus type 1 group M subtype B, UniProt P04585). As to the kind of experiment: HIV protease assay (Ki). The series is classed as biochemical. The conditions noted are these: for Ki: read-out: HIV-1 Ki. The text has this:
(§1) This example illustrates the HIV-1 protease inhibition activity (Ki), HIV-1 antiviral data (EC50), and the toxicity against normal cells (IC50), for particular compounds of formula (I). The HIV protease assay was done according to the protocol described in Kageyama et al, Antimicrob. Agents Chemother., 37, 272 (1993). The HIV antiviral assay was done according to the protocol described in Weislow et al., J. National Cancer Inst. 81, 577 (1989).
(§2) The HIV protease assay was done according to the protocol described in Example 35. The plasmepsin II assay was done according to the protocol used in Silva et al., Proc. Nat. Acad. Sci. USA, 93, pp. 10034–10039, September 1996 (Biochemstry). The cathepsin D assay was done according to the protocol described in Gulnik et al., FEBS Letters, 413, 379–384 (1997). The compounds illustrated in Table 2 are of the general formula (II), as described in Example 35.

Series [1] has as its target 84V mutant HIV-1 protease (Human immunodeficiency virus type 1 group M subtype B, UniProt P04585, I572V). As to the kind of experiment: HIV protease assay, 84V mutant (Ki). The series is classed as biochemical. The conditions noted are these: Table 1.
Description: as §1

Series [2] addresses 32I mutant HIV-1 protease (Human immunodeficiency virus type 1 group M subtype B, UniProt P04585, V520I). Put plainly: HIV protease assay, 32I mutant (Ki). The series is classed as biochemical. Particulars: Table 1; read-out: 321 Ki.
Description: as §1

For series [3], the target named is 82F/84V mutant HIV-1 protease (Human immunodeficiency virus type 1 group M subtype B, UniProt P04585, I572V/V570F). The series is classed as biochemical. The conditions noted are these: Table 1.
Description: as §1

The next series has as its system HIV-1. Put plainly: HIV antiviral assay (EC50). The series is classed as cell-based. The source says: The HIV protease assay was done according to the protocol described in Kageyama et al, Antimicrob. Agents Chemother., 37, 272 (1993). The HIV antiviral assay was done according to the protocol described in Weislow et al., J. National Cancer Inst. 81, 577 (1989).

Another series has as its system normal cells. Put plainly: toxicity against normal cells (IC50). The series is classed as cell-based.
Description: as §1

Another series addresses cathepsin D (Homo sapiens, UniProt P07339). Put plainly: cathepsin D assay (Ki). The series is classed as biochemical. Particulars: Table 2; read-out: Cath D Ki.
Description: as §2

The next series has as its target plasmepsin II (Plasmodium falciparum, UniProt P46925). Put plainly: biochemical. The series is classed as biochemical.
Description: as §2

A further series in a line: Rat IV pharmacokinetics. Particulars: IV about 5 mg/kg. The series is classed as in vivo, rats. The method, then:
(§3) This example illustrates the oral bioavailability of various compounds of the present invention. […] Drug concentrations were measured by centrifuging plasma samples, extracting the supernatants with tert-butyl methyl ether, and analyzing the extracts by HPLC. Oral bioavailability (% F) was calculated on the basis of the ratio of the amount of drug absorbed systemically from oral administration (AUC p.o.) relative to the amount of systemic drug obtained from intravenous administration (AUC iv).

Series [4] is described as follows: Rat P.O. pharmacokinetics and oral bioavailability. The series is classed as in vivo, rats. Particulars: for Cmax / Rat P.O. tmax: P.O. about 37 mg/kg, PEG 300 vehicle. The method, then: as §3
A short description of series [5]: IV-PO crossover oral bioavailability studies. The series is classed as in vivo. Particulars: two Sprague-Dawley rats; IV 7 and 3 mg/kg (DMSO), oral 22 and 50 mg/kg (PEG300). The method, then: Compound (19) was tested in IV-PO crossover studies in two Sprague-Dawley rats. For the IV portion of the studies, compound (19) was given at doses of 7 and 3 mg/kg, as a short infusion (30–60 seconds) via a jugular vein catheter using a vehicle of DMSO and a dose volume of 1 ml/kg. Heparinized blood samples were collected at close intervals through 3 hours, the plasma was separated, and plasma concentrations of compound (19) were determined by HPLC. One to two weeks later, the same rats were given doses of 22 and 50 mg/kg by gastric intubation. The vehicle was PEG300 and the dose volume was 10 ml/kg. Blood samples were collected at regular intervals through 24 hours, and analyzed as above. The oral bioavailability in both of these studies was 100%. Based on the excellent oral bioavailability of compound (19), it is expected that compound (19) will be an effective inhibitor of systemic aspartic protease when administered orally. Other compounds of the present invention also are expected to have-good oral bioavailability.

Setting [6] is: comparison of Table 2 Ki values.

Read-outs that look alike come from different tables or passages of the source.

plasmepsin II, sequence (P46925 125-453): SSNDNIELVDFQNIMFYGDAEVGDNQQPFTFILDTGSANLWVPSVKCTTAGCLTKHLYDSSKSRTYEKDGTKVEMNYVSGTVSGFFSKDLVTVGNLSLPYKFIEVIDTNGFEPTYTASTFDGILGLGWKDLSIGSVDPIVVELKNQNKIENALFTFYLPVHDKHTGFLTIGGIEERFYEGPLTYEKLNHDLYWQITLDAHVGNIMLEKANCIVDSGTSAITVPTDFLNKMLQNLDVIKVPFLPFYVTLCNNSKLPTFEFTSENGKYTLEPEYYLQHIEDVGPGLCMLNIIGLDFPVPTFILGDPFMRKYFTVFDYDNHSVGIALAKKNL
cathepsin D, sequence (P07339 65-412): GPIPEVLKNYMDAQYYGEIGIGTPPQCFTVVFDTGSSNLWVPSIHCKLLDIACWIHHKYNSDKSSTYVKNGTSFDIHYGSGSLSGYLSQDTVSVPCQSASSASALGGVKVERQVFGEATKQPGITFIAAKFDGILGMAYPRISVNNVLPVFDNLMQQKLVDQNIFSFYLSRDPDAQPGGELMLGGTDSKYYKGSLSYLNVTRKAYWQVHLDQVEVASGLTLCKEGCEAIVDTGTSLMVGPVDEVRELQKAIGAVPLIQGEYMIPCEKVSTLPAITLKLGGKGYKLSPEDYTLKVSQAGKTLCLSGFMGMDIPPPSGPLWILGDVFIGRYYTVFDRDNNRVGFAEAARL

`Cc1cccc(C)c1OCC(=O)N[C@@H](Cc1ccccc1)[C@@H](O)C[C@H](CC(C)C)NC(=O)[C@H](C(C)C)N1CCCNC1=O` [(16)]: the “inhibitory activity against HIV-1 protease, in words” value against HIV-1 protease is listed as “excellent potency”. The Ki turned out to be 0.007 nM on HIV-1 protease (Table 1); 0.007 nM at HIV-1 protease (Table 2); 0.008 nM at HIV-1 protease (Table 3); 0.091 nM in series [1]; 0.031 nM in [2]; 0.137 nM in series [3]. Also, the Ki on cathepsin D was found to be 3300 nM; on plasmepsin II (Table 2, read-out: Pls II Ki), 357 nM. Further, the “potency relative to compound (24) against HIV-1 protease” value on HIV-1 protease (setting [6]) is “about ten-fold more potent than compound (24)”. The EC50 with HIV-1 (Table 1), in the series on HIV-1 (Table 2) and with HIV-1 (Table 3) was 23 nM in each case. In addition, the IC50 in the series with normal cells (Table 2) was over 100000 nM. The “potency relative to compound (24) against plasmepsin II” value at plasmepsin II (setting [6]) is “about ten-fold more potent than compound (24)”. The “Rat IV CL” value in the series “Rat IV pharmacokinetics” is 9.8 mL/min/kg. Also, the “Rat IV t1/2” value in the series “Rat IV pharmacokinetics” worked out at 27 min. In [4] (AUC p.o. relative to AUC iv), the “Rat P.O. % F (%)” value is 1%. The molecule further displayed a Cmax in series [4] of 0.269 µM. For the same molecule, in series [4], the “Rat P.O. tmax” value was in the range of 10 to 15 min.

As to `CC(C)C[C@@H](C[C@H](O)[C@H](Cc1ccccc1)NC(=O)OCc1cncs1)NC(=O)[C@H](C(C)C)N1CCCNC1=O` [Compound (19), (2S,3S,5S)-5-[N-[[3-methyl-2S-(2-oxo-tetrahydropyrimidin-1-yl)]butyryl]amino]-2-[N-[(thiazol-5-yl-methoxy)carbonyl]amino]-3-hydroxy-7-methyl-1-phenyloctane], the Ki on HIV-1 protease (Table 1) turned out to be 0.07 ± 0.01 nM. In addition, on HIV-1 protease (Table 3), the Ki worked out at 0.07 nM. In the series with HIV-1 (Table 1), the EC50 was 500 nM. In the series with HIV-1 (Table 3), this molecule yielded an EC50 of 500 nM. The molecule also gave an IC50 in the series on normal cells (Table 1) of over 100000 nM. For the same molecule, in the series “Rat IV pharmacokinetics”, the “Rat IV CL” value was 25 mL/min/kg and the “Rat IV t1/2” value is 18 min. Moreover, in series [4], the Cmax stood at 24.8 µM and the “Rat P.O. tmax” value is 120 to 360 min. Besides, in [4] (oral), the “Cmax when administered orally, in words” value is recorded as “micromolar”. Further, the oral bioavailability in series [5] is given as 100%.
